Data taken from patent publication EP0154476A2, “Steroid compound” (STERWIN AG., priority 1984, dated 1985).

Key:
[1] = cytochemical bioassay in unfixed tissue sections of dioestrous rat ovary (formazan dye absorbance); format: biochemical; conditions: versus trilostane, weight for weight basis, standard curves 0.15 to 2.5 µM (nM), 95% confidence 1.4-2.1
Description: In a first study, a cytochemical bioassay was employed to determine the relative potency of the 17- keto trilostane metabolite versus trilostane, in three experiments. From the results obtained, standard curves covering the range from 0.15 to 2.5nM were prepared for the metabolite and the parent compound. Potency estimates were calculated by computer analysis of the relative slopes and errors around each dose point.
The cytochemical bioassay is based upon the reaction, within serial unfixed tissue sections of the dioestrous rat ovary, between the enzyme, […] -A^5-3-oxosteroid isomerase (38 HSD) contained therein, and added substrate, cofactors and a colourless tetrazolium salt. The reaction leads to the deposition of an intensely coloured blue insoluble formazan dye in the sections, and the amount of dye produced within a section over a given period (absorbance) is measured by means of a scanning integrating densitometer. If an inhibitor of 3a HSD, such as trilostane or 17-keto trilostane metabolite is added to the system, the amount of blue dye formed will be reduced.
The bioassay curves obtained are as shown in Figure 1 of the accompanying drawings, results being expressed as the mean +SD(n=4).

plasma cortisol = plasma cortisol by radioimmunoassay after oral trilostane in volunteers; format: in vivo, healthy male volunteers; conditions: trilostane 2 x 60 mg capsules orally, fasted, plasma up to 8 hours; during sustained plasma peaks of trilostane and 17-keto metabolite

SMILES | relative in vitro potency compared with the parent compound [1] | relative in vitro potency compared with the parent compound ([1]; listed as metabolite) [times] | cortisol secretion (plasma cortisol)
C[C@]12CC[C@H]3[C@@H](CC[C@@]45O[C@@H]4C(=O)[C@H](C#N)C[C@]35C)[C@@H]1CCC2=O [17-keto metabolite, 2α-cyano-4α,5α-epoxyandrostan-3,17-dione] | about 1.7 times | 1.71 | –
C[C@]12CC[C@H]3[C@@H](CC[C@@]45O[C@@H]4C(O)=C(C#N)C[C@]35C)[C@@H]1CC[C@@H]2O [trilostane, 2a-cyano-4a,5a-epoxyandrostan-17a-ol-3-one] | – | – | suppressed
